“Also recorded” adds a separate entry of the source.
Experiments:
[1] = molecular target: T1, IL-17A-IL-17RA binding (Homo sapiens, UniProt Q96F46); experiment: IL-17A-IL-17RA binding assay (ELISA); conditions: serial dilutions of compound
T1 construct: human IL-17RA-Fc (extracellular domain 1-322 AA fused with Fc region of human IgG1 at the C-terminus); purchased Sino Biological Inc
Protocol: IL-17A-IL-17RA binding assay. ELISA plates were coated with human IL-17A or IL-17E (2 μg/ml in PBS). Human IL-17RA-Fc or human IL-17RB-Fc (150 ng/ml) were added and incubated for 1 h, followed by incubation with human HRP-conjugated anti human IgG Fc secondary antibody for 1 h. ELISA were finally developed using tetramethylbenzidine substrate.

[2] = test system: human mammary epithelial cells (HMEC); experiment: IL-17A-induced CXCL1 (Groα) production, ELISA; type: cell-based; conditions: IL-17 100 ng/ml, 24 h
Description: Reagents, cell culture and mice. Purified proteins of human IL-17A, human IL-17E (IL-25), human IL-17RA-Fc (extracellular domain 1-322 AA fused with Fc region of human IgG1 at the C-terminus), human IL-17RB-Fc (extracellular domain 1-289 AA fused with Fc region of human IgG1 at the C-terminus), human horseradish peroxidase (HRP)-conjugated IgG Fc secondary antibody were purchased from Sino Biological Inc. Human and mouse IL-17A and mouse IL-23 used for cell culture and animal injection were purchased from R&D Systems. Human mammary epithelial cells were maintained in Medium 171 plus mammary epithelial growth supplement (MEGS) purchased from Invitrogen, which contain bovine pituitary extract (BPE) (0.4% v/v), recombinant human insulin-like growth factor-I (1 μg/ml), hydrocortisone (0.5 μg/ml) and human epidermal growth factor (3 ng/ml). A549 cells were maintained in RPMI supplemented with 10% FCS and 100 U/ml penicillin and 100 μg/ml streptomycin. All mice were obtained from Jackson laboratory.
ELISA. Groα and IL-17A levels were assayed by ELISA kits (R&D systems) according to the manufacturer's instruction.

[3] = test system: IL-17F-induced gene expression; experiment: IL-17F-induced gene expression in epithelial cells; type: cell-based, human; conditions: data not shown
[4] = test system: IL-17A-induced gene expression in lung tissue; experiment: Intranasal injection of IL-17A (lung inflammation); type: in vivo; conditions: BALB/c mice, A18 4 μg per mouse intranasal with IL-17A 1 μg, 4 h
Protocol: Intranasal injection of IL-17A. Eight-week WT BALB/cJ female mice were subjected to intranasal injection of PBS, 1 μg of IL-17A with or without A18 (4 μg per mouse). […]
Real-time PCR. Total RNA was extracted from spinal cords and cultured astrocytes with TRIzol (Invitrogen) according to the manufacturer's instructions. All gene expression results are expressed as arbitrary units relative to expression of the gene encoding beta-actin.

[5] = test system: HFD-induced AHR; experiment: High-fat-diet-induced airway hyperreactivity; type: in vivo; conditions: A18 30 μg per mouse i.p., last 10 days of HFD
Protocol: High-fat-diet intervention. Starting at 4 weeks of age, WT C57BL/6 male mice were fed with 10 kcal % fat chow diet (CD) or a 60 kcal % HFD for 14 weeks. HFD+A18 group of mice were i.p. injected with A18 (30 μg per mouse) daily for 10 days before subjection to AHR measurement. Both CD (D12450B) or HFD (D12492) were obtained from Research Diets, Inc. Measurement of AHR. AHR was measured in mice in response to increasing doses of inhaled methacholine. Mice were anesthetized with i.p. pentobarbital sodium (60 mg/kg). After the intubation and the placement of a 19-gauge cannula through a tracheotomy incision, the cannula was affixed with a silk suture ligation. Mice were connected to a computer-controlled piston ventilator run at a rate of 150 breaths/min, a tidal volume of 0.2 ml, and a positive end-expiratory pressure of 2-3 cm H2O (Flexivent). Mice were then administered a muscle relaxant (pancuronium bromide, 800 mg/kg), and the lungs were expanded twice to total lung capacity at an amplitude pressure of 30 cm H2O. […] Lung resistance (RL) was obtained through forced oscillation technique by FlexiVent 5.2 (Flexivent; Scireq) software. Real-time PCR. […] All gene expression results are expressed as arbitrary units relative to expression of the gene encoding beta-actin.

[6] = test system: HDM-induced allergic airway disease; experiment: House dust mite (HDM)-induced asthma; type: in vivo; conditions: C57BL/6 mice, A18 30 μg per mouse i.p. daily
Protocol: Measurement of AHR. AHR was measured in mice in response to increasing doses of inhaled methacholine. Mice were anesthetized with i.p. pentobarbital sodium (60 mg/kg). After the intubation and the placement of a 19-gauge cannula through a tracheotomy incision, the cannula was affixed with a silk suture ligation. Mice were connected to a computer-controlled piston ventilator run at a rate of 150 breaths/min, a tidal volume of 0.2 ml, and a positive end-expiratory pressure of 2-3 cm H2O (Flexivent). Mice were then administered a muscle relaxant (pancuronium bromide, […]), and the lungs were expanded twice to total lung capacity at an amplitude pressure of 30 cm H2O. Each mouse was aerosolized with methacholine in saline at doses of 0 mg/ml, 12.5 mg/ml, 25 mg/ml, and 50 mg/ml, delivered over 10 s through an in-line nebulizer. Lung resistance (RL) was obtained through forced oscillation technique by FlexiVent 5.2 (Flexivent; Scireq) software. House dust mite (HDM)-induced asthma. WT C57BL/6 mice were sensitized intratracheally (i.t.) with HDM (Dermatophagoides farina, 100 μg per mouse, Greer Laboratories) on day 0 and subsequently challenged (i.t.) with HDM (100 μg per mouse) from day 7 for 5 days. […] All gene expression results are expressed as arbitrary units relative to expression of the gene encoding beta-actin.

[7] = test system: D4M melanoma cells; experiment: Experimental melanoma lung metastasis; type: in vivo; conditions: C57BL/6, 1×10^6 D4M cells tail vein, A18 60 μg/mouse daily, day 20
Protocol: Melanoma pulmonary metastasis is indicative of poor prognosis. The experimental lung metastasis has been used to test the ability of tumor cell migration, growth at distant sites, effects of drugs for treatment of lung metastasis. In this model, melanoma cells are injected through tail vein, and metastatic lesions can be established in the lung after 2-3 weeks. Here we used this experimental lung metastasis model to test the possible impact of A18 on melanoma re-establishment at distant lung tissue. […] melanoma cells (Jenkins et al., Pigment cell & melanoma research 27, 495-501 (2014)), (1×10^6 cells) were injected into C57BL/6 mouse through tail vein. The control group mice were injected with 200 μl PBS daily, the other group mice were injected with 60 μg A18/mouse daily. The Histological sections were obtained from lung tissue at day 20.

T1 sequence (Q96F46 33-322): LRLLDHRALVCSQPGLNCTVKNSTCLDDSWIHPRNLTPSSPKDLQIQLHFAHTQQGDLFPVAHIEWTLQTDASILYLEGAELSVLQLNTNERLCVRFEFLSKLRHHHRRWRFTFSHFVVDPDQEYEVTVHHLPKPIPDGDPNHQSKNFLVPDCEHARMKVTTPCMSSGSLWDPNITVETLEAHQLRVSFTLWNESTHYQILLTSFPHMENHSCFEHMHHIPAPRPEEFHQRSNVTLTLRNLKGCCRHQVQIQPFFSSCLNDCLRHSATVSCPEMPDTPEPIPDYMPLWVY

For `Oc1cc(O)c2cc(O)c(-c3ccc(O)c(O)c3)[o+]c2c1.[Cl-]` [A18, 2-(3,4-Dihydroxyphenyl)-3,5,7-trihydroxy-1-benzopyrylium chloride], which “Inhibition of IL-17A-IL-17RA binding” value [1] is on record?
The value was “excellent inhibition efficacy; also recorded: great inhibition efficacy”.

And the “IL-17A-mediated CXCL1 production” value [2]?
Its value is “greatly inhibited”.

What about the IL-17F-induced gene expression [3] of the same compound?
The IL-17F-induced gene expression was “able to block”.

And the “IL-17A-induced gene expression in lung” value [4]?
Its value is “greatly inhibited”.

What about the “HFD-induced AHR” value ([5]; C57Bl/6 mice) of the same compound?
Its value is “substantially attenuated”.

And the “HFD-induced inflammatory gene expression in lung” value ([5]; C57Bl/6 mice)?
The value was “substantially attenuated”.

And the “HFD-induced production of IL-17A in the lung” value ([5]; cultured lung cells)?
The value was “no impact”.

And the “HDM-induced AHR” value [6]?
Its value is “reduced”.

What about the “HDM-induced inflammatory gene expression” value [6] of the same compound?
The value was “reduced”.

What about the Lung metastasis tumors [7] of the same compound?
The Lung metastasis tumors was “Fewer and smaller”.

Source: US10385034B2, “Flavonoid IL-17A inhibitors” (THE CLEVELAND CLINIC FOUNDATION, priority 2014, dated 2019)
